Experimental data published in publication PMC4300089, “Structure-Guided Design of Selective Epac1 and Epac2 Agonists” (PLoS Biology, 2015).
Several values for one entry are separate records, joined by “and”; a condition that tells them apart may be missing. Equal values may be shown once.

Key:
Epac1 = molecular target: T1, Epac1 (Homo sapiens, UniProt O95398); parameters: method as in PMID 12888551; details: footnote c, see also ref 13; cited from earlier work
T1 construct: made in house
T1 sequence (O95398 150-881 isoform O95398-3): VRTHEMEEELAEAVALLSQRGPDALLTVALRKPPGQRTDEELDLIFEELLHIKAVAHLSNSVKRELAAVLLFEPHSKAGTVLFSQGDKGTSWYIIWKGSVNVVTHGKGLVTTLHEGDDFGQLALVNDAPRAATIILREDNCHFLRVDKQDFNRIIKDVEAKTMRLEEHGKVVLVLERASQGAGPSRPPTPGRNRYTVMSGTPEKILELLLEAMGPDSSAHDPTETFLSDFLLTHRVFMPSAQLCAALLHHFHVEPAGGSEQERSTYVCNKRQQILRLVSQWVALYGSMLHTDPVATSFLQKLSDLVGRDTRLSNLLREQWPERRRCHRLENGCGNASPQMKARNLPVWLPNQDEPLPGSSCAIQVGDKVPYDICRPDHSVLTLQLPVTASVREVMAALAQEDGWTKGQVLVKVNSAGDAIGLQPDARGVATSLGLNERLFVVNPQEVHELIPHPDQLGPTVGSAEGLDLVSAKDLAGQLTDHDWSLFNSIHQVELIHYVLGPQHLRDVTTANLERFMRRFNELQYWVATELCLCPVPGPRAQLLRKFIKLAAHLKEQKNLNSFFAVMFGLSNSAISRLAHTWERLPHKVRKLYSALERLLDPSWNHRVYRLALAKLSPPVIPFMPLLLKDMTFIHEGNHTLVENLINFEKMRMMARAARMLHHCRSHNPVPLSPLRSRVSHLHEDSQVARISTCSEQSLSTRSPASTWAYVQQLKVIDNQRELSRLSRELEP

Epac2^Δ280,K450E = molecular target: T2, Epac2^Δ280,K450E (Mus musculus, UniProt Q9EQZ6, K468E); experiment: Epac activation assay, Epac2 K450E mutant; assay type: biochemical
T2 construct: made in house
T2 sequence (Q9EQZ6 281-993 isoform Q9EQZ6-3 K450E): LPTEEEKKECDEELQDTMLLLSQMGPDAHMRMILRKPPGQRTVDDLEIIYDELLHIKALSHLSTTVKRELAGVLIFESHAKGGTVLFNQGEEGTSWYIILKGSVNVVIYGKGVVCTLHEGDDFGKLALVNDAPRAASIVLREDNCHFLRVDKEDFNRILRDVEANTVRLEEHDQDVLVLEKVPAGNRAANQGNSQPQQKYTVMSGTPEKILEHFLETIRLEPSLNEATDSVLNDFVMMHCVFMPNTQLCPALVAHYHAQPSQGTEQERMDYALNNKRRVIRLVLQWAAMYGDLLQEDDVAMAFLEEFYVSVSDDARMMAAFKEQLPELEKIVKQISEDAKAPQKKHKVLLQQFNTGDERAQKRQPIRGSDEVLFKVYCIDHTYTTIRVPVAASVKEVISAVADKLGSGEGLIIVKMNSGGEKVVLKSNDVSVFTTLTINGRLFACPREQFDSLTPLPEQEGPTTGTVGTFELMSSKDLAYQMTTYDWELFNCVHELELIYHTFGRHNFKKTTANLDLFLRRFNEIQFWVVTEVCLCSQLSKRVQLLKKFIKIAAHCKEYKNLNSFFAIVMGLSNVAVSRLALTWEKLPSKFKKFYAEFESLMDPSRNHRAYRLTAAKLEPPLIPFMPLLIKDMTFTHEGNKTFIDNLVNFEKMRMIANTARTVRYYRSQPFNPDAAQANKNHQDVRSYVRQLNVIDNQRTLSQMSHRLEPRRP
Method: Murine Epac2 was used as all previous structural studies were performed with it.
The activity of Epac was determined by a fluorescence assay. […] The fluorescence intensity of Rap1B•mGDP is approximately twice that of free mGDP, and thus, nucleotide exchange can be observed as a decay in fluorescence upon the addition of excess unlabeled GDP.

PKA-Iβ = molecular target: T3, PKA-Iβ (Homo sapiens, UniProt P31321); experiment: PKA activity assay, PKA-Iβ; assay type: biochemical; details: for A (PKA activity): PKAIβ
T3 construct: made in house
Method: The recombinant human PKA catalytic subunit (Cα1) and the four human PKA regulatory subunits (RIα, RIβ, RIIα, RIIβ) were expressed, purified, and characterized as described. […] PKA holoenzymes were formed by mixing the R- and C-subunit at a molar ratio of 1.2:1 and extensive dialysis against 20 mM MOPS (pH 7.0), 150 mM NaCl, 2.5 mM β-mercaptoethanol, supplemented with 1 mM ATP and 10 mM MgCl2 for PKA-I at 4°C overnight. PKA holoenzymes were used at about 20 nM for the activation assay. The apparent activation constants (Kact) were determined by fitting the concentration-dependent activity to a sigmoid dose-response model.

T3 sequence (P31321 whole entry): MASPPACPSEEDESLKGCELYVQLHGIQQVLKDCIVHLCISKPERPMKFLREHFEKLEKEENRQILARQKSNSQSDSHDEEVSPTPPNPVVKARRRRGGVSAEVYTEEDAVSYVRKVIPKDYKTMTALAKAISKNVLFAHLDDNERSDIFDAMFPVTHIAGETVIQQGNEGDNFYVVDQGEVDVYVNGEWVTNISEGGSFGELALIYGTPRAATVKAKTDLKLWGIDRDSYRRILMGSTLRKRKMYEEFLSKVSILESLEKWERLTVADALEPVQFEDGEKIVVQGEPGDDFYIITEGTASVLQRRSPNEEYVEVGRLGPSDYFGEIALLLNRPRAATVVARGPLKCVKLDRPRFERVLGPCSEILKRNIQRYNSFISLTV

| SMILES | kobs (Epac2^Δ280,K450E; 0.01 μM compound) | kobs (Epac2^Δ280,K450E; 0.05 μM compound) | kobs (Epac2^Δ280,K450E; 0.08 μM compound) | kobs (Epac2^Δ280,K450E; 0.1 μM compound) | kobs (Epac2^Δ280,K450E; 0.3 μM compound) | kobs (Epac2^Δ280,K450E; 0.4 μM compound) | kobs (Epac2^Δ280,K450E; 0.5 μM compound) | kobs (Epac2^Δ280,K450E; 0.6 μM compound) | kobs (Epac2^Δ280,K450E; 0.7 μM compound) | kobs (Epac2^Δ280,K450E; 0.8 μM compound) | kobs (Epac2^Δ280,K450E; 1 μM compound) | kobs (Epac2^Δ280,K450E; 2 μM compound) | kobs (Epac2^Δ280,K450E; 3 μM compound) | kobs (Epac2^Δ280,K450E; 4 μM compound) | kobs (Epac2^Δ280,K450E; 5 μM compound) | kobs (Epac2^Δ280,K450E; 6 μM compound) | kobs (Epac2^Δ280,K450E; 7 μM compound) | kobs (Epac2^Δ280,K450E; 8 μM compound) | kobs (Epac2^Δ280,K450E; 10 μM compound) | A (PKA activity) (PKA-Iβ; concentration 1.00E+01 μM) | further results |
| --- | --- | --- | --- | --- | --- | --- | --- | --- | --- | --- | --- | --- | --- | --- | --- | --- | --- | --- | --- | --- | --- |
| Nc1ncnc2c1nc(Sc1ccc(Cl)cc1)n2[C@@H]1O[C@@H]2COP(=O)(O)O[C@H]2[C@H]1O [L-026, 8-pCPT-cAMP] | – | – | – | – | – | – | – | – | – | – | – | – | – | – | – | – | – | – | – | – | AC50 (Epac1): 0.9 µM |
| Nc1ncnc2c1ncn2C1OC2COP(O)(=S)OC2C1O (stereo not shown) [S-000, Sp-cAMPS] | 4.6e-05 s⁻¹ | 6.3e-05 s⁻¹ | 7.4e-05 s⁻¹ | 8e-05 s⁻¹ and 9.8e-05 s⁻¹ | 0.000139 s⁻¹ | 0.000171 s⁻¹ | 0.000194 s⁻¹ | 0.000231 s⁻¹ | 0.000249 s⁻¹ | 0.000268 s⁻¹ | 0.000297 s⁻¹ | 0.000427 s⁻¹ | 0.000527 s⁻¹ | 0.000575 s⁻¹ | 0.000593 s⁻¹ | 0.000641 s⁻¹ | 0.000636 s⁻¹ | 0.00067 s⁻¹ | 0.000647 s⁻¹ | – | AC50 (Epac1): 90 µM; Rel. kmax (Epac1): 1.4^c; kobs (Epac2^Δ280,K450E; 20 μM compound): 0.000817 s⁻¹; kobs (Epac2^Δ280,K450E; 30 μM compound): 0.000851 s⁻¹; kobs (Epac2^Δ280,K450E; 40 μM compound): 0.00083 s⁻¹; kobs (Epac2^Δ280,K450E; 50 μM compound): 0.000833 s⁻¹; kobs (Epac2^Δ280,K450E; 60 μM compound): 0.000819 s⁻¹; kobs (Epac2^Δ280,K450E; 70 μM compound): 0.000826 s⁻¹; kobs (Epac2^Δ280,K450E; 80 μM compound): 0.000827 s⁻¹; kobs (Epac2^Δ280,K450E; 100 μM compound): 0.000823 s⁻¹ |
| Nc1ncnc2c1nc(SCc1ccccc1)n2[C@@H]1O[C@@H]2CO[P@](O)(=S)O[C@H]2[C@H]1O [S-220, Sp-8-BnT-cAMPS] | 7.9e-05 s⁻¹ | 0.000201 s⁻¹ | 0.000291 s⁻¹ | 0.000329 s⁻¹ | 0.000717 s⁻¹ | 0.000786 s⁻¹ | 0.000805 s⁻¹ | 0.000891 s⁻¹ | 0.000938 s⁻¹ | 0.000942 s⁻¹ | 0.000907 s⁻¹ | 0.00111 s⁻¹ | 0.00113 s⁻¹ | 0.00112 s⁻¹ | 0.00108 s⁻¹ | 0.00112 s⁻¹ | 0.00112 s⁻¹ | 0.00112 s⁻¹ | 0.00104 s⁻¹ | 2.34E+01 U/mg | Kact compared to cAMP (times higher) (PKA-Iβ; PKA-Iβ): three to eight times higher; EC50 (PKA-Iβ; PKA-Iβ, read-out: Kact): 290 nM; A (PKA activity) (PKA-Iβ; concentration 1 μM): 2.04E+01 U/mg; A (PKA activity) (PKA-Iβ; concentration 1.00E-01 μM): 7.7375 U/mg; A (PKA activity) (PKA-Iβ; concentration 1.00E-02 μM): 4.3125 U/mg; A (PKA activity) (PKA-Iβ; concentration 1.00E-03 μM): 4.35 U/mg; A (PKA activity) (PKA-Iβ; concentration 1.00E-05 μM): 4.525 U/mg; A (PKA activity) (PKA-Iβ; concentration 1.70E-01 μM): 1.11E+01 U/mg; A (PKA activity) (PKA-Iβ; concentration 2.50E+02 μM): 2.32E+01 U/mg; A (PKA activity) (PKA-Iβ; concentration 2.50E-01 μM): 1.38E+01 U/mg; A (PKA activity) (PKA-Iβ; concentration 5.00E-01 μM): 1.59E+01 U/mg; kobs (Epac2^Δ280,K450E; 0.001 μM compound): 3.4e-05 s⁻¹; kobs (Epac2^Δ280,K450E; 0.003 μM compound): 4.1e-05 s⁻¹; kobs (Epac2^Δ280,K450E; 0.005 μM compound): 4.7e-05 s⁻¹; kobs (Epac2^Δ280,K450E; 0.008 μM compound): 5.6e-05 s⁻¹; kobs (Epac2^Δ280,K450E; 0.03 μM compound): 0.000149 s⁻¹; kobs (Epac2^Δ280,K450E; 0.04 μM compound): 0.000174 s⁻¹; kobs (Epac2^Δ280,K450E; 0.06 μM compound): 0.000239 s⁻¹; kobs (Epac2^Δ280,K450E; 0.07 μM compound): 0.000269 s⁻¹; kobs (Epac2^Δ280,K450E; 0.2 μM compound): 0.000621 s⁻¹ |
| Cc1ccc(CSc2nc3c(N)ncnc3n2[C@@H]2O[C@@H]3CO[P@](O)(=S)O[C@H]3[C@H]2O)cc1 [S-230, Sp-8-pMeBnT-cAMPS] | – | – | – | – | – | – | – | – | – | – | – | – | – | – | – | – | – | – | – | 2.81 U/mg | A (PKA activity) (PKA-Iβ; concentration 1.00E-01 μM): 5.21 U/mg; A (PKA activity) (PKA-Iβ; concentration 1.00E-03 μM): 4.71 U/mg; A (PKA activity) (PKA-Iβ; concentration 1.00E-05 μM): 4.53 U/mg; A (PKA activity) (PKA-Iβ; concentration 2.50E+02 μM): 3.19 U/mg |
| Nc1ncnc2c1ncn2[C@@H]1O[C@@H]2COP(=O)(O)O[C@H]2[C@H]1O [cAMP, reference compound] | 3.01e-05 s⁻¹ | 4.19e-05 s⁻¹ | 5.14e-05 s⁻¹ | 5.5e-05 s⁻¹ | 9.73e-05 s⁻¹ | 0.000114 s⁻¹ | 0.000124 s⁻¹ | 0.000146 s⁻¹ | 0.000155 s⁻¹ | 0.000161 s⁻¹ | 0.00017 s⁻¹ | 0.000246 s⁻¹ | 0.000274 s⁻¹ | 0.000285 s⁻¹ | 0.000283 s⁻¹ | 0.000286 s⁻¹ | 0.000293 s⁻¹ | 0.000295 s⁻¹ | 0.000299 s⁻¹ | 2.37E+01 U/mg | A (PKA activity) (PKA-Iβ; concentration 1 μM): 2.35E+01 U/mg; A (PKA activity) (PKA-Iβ; concentration 1.00E+02 μM): 2.44E+01 U/mg; A (PKA activity) (PKA-Iβ; concentration 1.00E-01 μM): 2.23E+01 U/mg; A (PKA activity) (PKA-Iβ; concentration 1.00E-02 μM): 7.2375 U/mg; A (PKA activity) (PKA-Iβ; concentration 1.00E-03 μM): 2.9 U/mg; A (PKA activity) (PKA-Iβ; concentration 1.00E-05 μM): 4.525 U/mg; A (PKA activity) (PKA-Iβ; concentration 2.50E-02 μM): 1.08E+01 U/mg; A (PKA activity) (PKA-Iβ; concentration 5.00E-02 μM): 1.54E+01 U/mg; kobs (Epac2^Δ280,K450E; 0.2 μM compound): 8.25e-05 s⁻¹; kobs (Epac2^Δ280,K450E; 20 μM compound): 0.000336 s⁻¹; kobs (Epac2^Δ280,K450E; 30 μM compound): 0.000329 s⁻¹; kobs (Epac2^Δ280,K450E; 40 μM compound): 0.000336 s⁻¹; kobs (Epac2^Δ280,K450E; 50 μM compound): 0.000327 s⁻¹; kobs (Epac2^Δ280,K450E; 60 μM compound): 0.000303 s⁻¹; kobs (Epac2^Δ280,K450E; 70 μM compound): 0.000306 s⁻¹; kobs (Epac2^Δ280,K450E; 80 μM compound): 0.000304 s⁻¹; kobs (Epac2^Δ280,K450E; 100 μM compound): 0.000294 s⁻¹ |
